Common to all, as to format: cell-based
For test [1], the system named is K. pneumoniae strain in clinical urine sample BIUR0084. As to the kind of experiment: Automated MultiPath AST cartridge on clinical urine, Example 8. Conditions: 4 h growth, fold growth value of 2, matched CLSI broth microdilution. In general terms: In broth dilution the organism is exposed to a series of concentrations in liquid medium.
The test system of the next test is K. pneumoniae CDC0126. As to the kind of experiment: Novel rapid AST (4 h differential growth, FISH cell counting) in urine matrix, Example 7. As to conditions: Klebsiella pneumoniae, 4 h growth, fold-growth threshold 20, read-out: MIC generated by novel rapid AST method. Here is the method:
Bacterial cell preparation: 50 bacterial strains with known resistance profiles were collected from either the ATCC or from the CDC antibiotic resistance bank (AR bank) and are shown in Table A. Bacterial cultures for each of these were obtained by inoculating Trypticase Soy Broth (TSB, Hardy Diagnostics cat. U65) with 3 to 5 colonies from fresh tryptic soy agar plates (TSA, BD cat. 221185) and growing for 1.5 to 3 hours at 35° C. to achieve log-phase growth. Using optical density at 600 nm to estimate cell concentration, each culture was diluted to approximately 5×10^6 colony-forming units (CFU)/mL in cation-adjusted Mueller Hinton II (MHBII, Teknova cat. M5860).
A reaction mixture was prepared consisting of 30 μL processed urine, 10 μL of the 5×10^6 CFU/mL bacterial dilution, 60 μL MHBII (1× final concentration in 100 μL) and the appropriate species-specific Alexa647N-labeled DNA oligonucleotide FISH probe and its associated unlabeled DNA helper probes for the target bacterial species. […] 10 μL of the prepared magnetic particle mixture was then added to the well. […]
Four Hour Growth: While the time zero cell quantification was occurring, 12 μL of prepared bacterial culture, 36 uL pooled human urine processed as done for the assay time zero, 60 uL of 2×MHB II (Teknova, cat. #M5860) and 2 uL water was added to each well of the prepared antibiotic plate. […]

A further test concerns E. coli ATCC 25922. As to the kind of experiment: Novel 4.5-hour AST in presence of beta-lactamase producing K. pneumoniae, Example 11. Conditions: Escherichia coli, ATCC25922, 4.5 h; sensitive E. coli strain; increasing amounts of beta-lactamase producing K. pneumoniae; read-out: MIC, novel 4.5-hour AST method. Here is the method:
Experimental procedure. Preparation of Antibiotic Plates: Antibiotic plates prepared as described in Impact of Non-Sterile Sample on Target MIC example.
E. coli was diluted to 5×10^5 CFU/mL (CLSI standard concentration) while K. pneumoniae was diluted to various inoculum (ranging from 1×10^6 and 5×10^8 CFU/mL).
30 μL of each processed urine was added to 70 μL of 1× cation-adjusted Mueller-Hinton Broth (MHBII) containing species-specific Alexa647N-labeled DNA oligonucleotide FISH probes and unlabeled DNA helper probes. […] 10 μL of the prepared magnetic particle mixture was then added to the well.
Four-Hour Growth: The E. coli was tested in the presence of varying inoculum of K. pneumoniae-OXA for susceptibility against 2 antimicrobial agents: Imipenem and Meropenem.
100 μL of each well of the incubated sample-antibiotic plate was transferred to a corresponding well of a dehydrated buffer plate and combined with FISH probes, helper probes, magnetic particles, and focus particles in the same manner as described above for assay time zero.
All data was then compared to CLSI standard BMD.

Four compounds from patent US12287332B2, “Test cartridges” (First Light Diagnostics, Inc., priority 2018, dated 2025) can be followed below.

Converted amounts (≈) assume the structure as drawn.

On to `Cc1nnc(SCC2=C(C(=O)O)N3C(=O)[C@@H](NC(=O)Cn4cnnn4)[C@H]3SC2)s1` [Cefazolin], for which the “sensitive/resistant call by MultiPath” value in test [1] is on record as “resistant”.

As to `O=C(O)c1cn(C2CC2)c2cc(N3CCNCC3)c(F)cc2c1=O` [Ciprofloxacin], the MIC with K. pneumoniae CDC0126 worked out at 0.25 µg/mL (≈ 0.754 µM).

Regarding `C[C@@H](O)[C@H]1C(=O)N2C(C(=O)O)=C(SCCN=CN)C[C@H]12` [Imipenem], in the test on E. coli ATCC 25922, the MIC is less than 1 µg/mL.

On to Trimethoprim/Sulfamethoxazole, for which the “sensitive/resistant call by MultiPath” value in test [1] is given as “resistant”.

Usually MIC stands for the least concentration at which growth counts as inhibited.
